Data published in ChEMBL document CHEMBL1914292, “Synthesis and in vitro cytotoxic activity of novel pyrazolo[3,4-d]pyrimidines and related pyrazole hydrazones toward breast adenocarcinoma MCF-7 cell line” (Bioorg Med Chem, 2011).

Experiments:
MCF7 [1] = assay: Cytotoxicity against human MCF7 cells assessed as RNA level per 10 '6 cells at 1/10 of IC50 after 24 hrs (reference value: 15.3 +/- 1.6 ug); type: functional
MCF7 [2] = assay: Induction of oxidative stress in human MCF7 cells assessed as glutathione peroxidase activity per mg of protein at 1/10 of IC50 after 24 hrs (reference value: 9.3 +/- 1 U); type: functional
MCF7 [3] = assay: Induction of oxidative stress in human MCF7 cells assessed as superoxide dismutase activity per mg of protein at 1/10 of IC50 after 24 hrs (reference value: 40.3 +/- 4.75 U); type: functional
MCF7 [4] = assay: Cytotoxicity against human MCF7 cells after 48 hrs by SRB colorimetric assay; type: functional, cell-based; conditions: MCF7, 48 h
MCF7 [5] = assay: Cytotoxicity against human MCF7 cells assessed as protein level per 10 '6 cells at 1/10 of IC50 after 24 hrs (reference value: 110.5 +/- 12.3 ug); type: functional
MCF7 [6] = assay: Induction of oxidative stress in human MCF7 cells assessed as hydrogen peroxide level per mg of protein at 1/10 of IC50 after 24 hrs (reference value: 15.7 +/- 1.6 nmol); type: functional
MCF7 [7] = assay: Induction of oxidative stress in human MCF7 cells assessed as catalase activity per mg of protein at 1/10 of IC50 after 24 hrs (reference value: 7.6 +/- 0.7 U); type: functional
MCF7 [8] = assay: Induction of oxidative stress in human MCF7 cells assessed as GSH level per mg of protein at 1/10 of IC50 after 24 hrs (reference value: 40 +/- 5 nmol); type: functional
MCF7 [9] = assay: Cytotoxicity against human MCF7 cells assessed as nitric oxide level per mg protein at 1/10 of IC50 after 24 hrs (reference value: 1.9 +/- 0.16 umol); type: functional
MCF7 [10] = assay: Cytotoxicity against human MCF7 cells assessed as DNA level per 10 '6 cells at 1/10 of IC50 after 24 hrs (reference value: 8.5 +/- 0.8 ug); type: functional

Row | Compound | Activity (MCF7 [1]) | Activity (MCF7 [2]) | Activity (MCF7 [3]) | IC50 (MCF7 [4]) | Activity (MCF7 [5]) | Activity (MCF7 [6]) | Activity (MCF7 [7]) | Activity (MCF7 [8]) | Activity (MCF7 [9]) | Activity (MCF7 [10])
1 | COc1cc(/C=N/n2c(C)nc3c(cnn3-c3ccc(Cl)cc3)c2=O)cc(OC)c1OC | 2.6 µg | 4.85 U | 110 U | 7.6 µM | 27.5 µg | 53.3 nmol | 2.2 U | 17.8 nmol | 4.4 µmol | 3 µg
2 | COc1ccc(/C=N/n2c(C)nc3c(cnn3S(=O)(=O)c3ccc(Cl)cc3)c2=O)cc1OC |  |  |  | 33.6 µM |  |  |  |  |  | 
3 | COc1ccc(/C=N/n2c(C)nc3c(cnn3-c3ccc(Cl)cc3)c2=O)cc1OC |  |  |  | 25 µM |  |  |  |  |  | 
4 | Cc1nc2c(cnn2S(=O)(=O)c2ccc(Cl)cc2)c(=O)n1/N=C/c1ccccc1 |  |  |  | 22.4 µM |  |  |  |  |  | 
5 | COc1ccc(/C=N/n2c(C)nc3c(cnn3-c3ccc(Cl)cc3)c2=O)cc1 | 12 µg | 8 U | 50 U | 38.6 µM | 80.2 µg | 24.8 nmol | 7.4 U | 36.3 nmol | 2.9 µmol | 7 µg
6 | COc1cc(/C=N/n2c(C)nc3c(cnn3-c3ccc(Cl)cc3)c2=O)ccc1O | 3.2 µg | 5.4 U | 100.3 U | 19.8 µM | 42.6 µg | 39.4 nmol | 3.5 U | 23.5 nmol | 3.6 µmol | 4.5 µg
7 | CC(=O)Nc1[nH]ncc1C(=O)N/N=C/c1ccccc1 |  |  |  | 42 µM |  |  |  |  |  | 
8 | Cc1nc2c(cnn2-c2ccccc2)c(=O)n1-c1cnc2ccccc2c1 |  |  |  | 1.53 µM |  |  |  |  |  | 
9 | COc1ccc(/C=N/n2c(C)nc3c(cnn3S(=O)(=O)c3ccc(Cl)cc3)c2=O)cc1 |  |  |  | 41.9 µM |  |  |  |  |  | 
10 | COc1ccc(/C=N/NC(=O)c2cn[nH]c2NC(C)=O)cc1 |  |  |  | 61.7 µM |  |  |  |  |  | 
11 | COc1cc(C(=O)Nn2c(C)nc3c(cnn3S(=O)(=O)c3ccc(Cl)cc3)c2=O)cc(OC)c1OC |  |  |  | 35.8 µM |  |  |  |  |  | 
12 | COc1cc(/C=N/n2c(C)nc3c(cnn3S(=O)(=O)c3ccc(Cl)cc3)c2=O)cc(OC)c1OC | 7.22 µg | 6.8 U | 80 U | 27.8 µM | 78.3 µg | 27.8 nmol | 4.3 U | 34.2 nmol | 2.8 µmol | 5.3 µg
13 | COc1ccc(/C=N/NC(=O)c2cn[nH]c2NC(C)=O)cc1OC |  |  |  | 37.1 µM |  |  |  |  |  | 
14 | COc1cc(/C=N/NC(=O)c2cn[nH]c2NC(C)=O)cc(OC)c1OC | 8.8 µg | 7.33 U | 75.44 U | 32.1 µM | 85.8 µg | 25.6 nmol | 5.85 U | 30.11 nmol | 3 µmol | 6.1 µg
15 | Cc1nc2c(cnn2-c2ccc(Cl)cc2)c(=O)n1/N=C/c1ccccc1 | 5 µg | 6 U | 95.25 U | 23.1 µM | 55.4 µg | 30 nmol | 3.82 U | 30.4 nmol | 3 µmol | 5.11 µg
